Results: PubChem BioAssay (NCI)
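GI50 = concentration required for 50% inhibition of growth. Definition used: TGI = concentration required for complete inhibition of growth.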

Columns and labels:
Experiment in all cases: NCI anticancer screen, dose series, 384-well format
NCI-H460 NSCLC = tested on: NCI-H460 NSCLC
TK-10 renal = tested on: TK-10 renal
SNB-19 CNS = tested on: SNB-19 CNS
SK-MEL-2 melanoma = tested on: SK-MEL-2 melanoma
NCI-H322M lung = tested on: NCI-H322M lung
RPMI-8226 leukemia = tested on: RPMI-8226 leukemia
NCI/ADR-RES ovarian = tested on: NCI/ADR-RES ovarian
HOP-62 NSCLC = tested on: HOP-62 NSCLC
A498 renal = tested on: A498 renal
HCC-2998 colon = tested on: HCC-2998 colon
LOX IMVI melanoma = tested on: LOX IMVI melanoma
K-562 leukemia = tested on: K-562 leukemia
HT29 colon = tested on: HT29 colon
PC-3 prostate = tested on: PC-3 prostate
HOP-92 NSCLC = tested on: HOP-92 NSCLC
OVCAR-4 ovarian = tested on: OVCAR-4 ovarian
EKVX NSCLC = tested on: EKVX NSCLC
HCT-116 colon = tested on: HCT-116 colon
COLO 205 colon = tested on: COLO 205 colon
T-47D breast = tested on: T-47D breast
SF-539 CNS = tested on: SF-539 CNS
CAKI-1 renal = tested on: CAKI-1 renal
MDA-MB-468 breast = tested on: MDA-MB-468 breast
SNB-75 CNS = tested on: SNB-75 CNS
MALME-3M melanoma = tested on: MALME-3M melanoma
ACHN renal = tested on: ACHN renal
MCF7 breast = tested on: MCF7 breast
SR leukemia = tested on: SR leukemia
SW-620 colon = tested on: SW-620 colon
BT-549 breast = tested on: BT-549 breast
UO-31 renal = tested on: UO-31 renal
UACC-62 melanoma = tested on: UACC-62 melanoma
CCRF-CEM leukemia = tested on: CCRF-CEM leukemia
MOLT-4 leukemia = tested on: MOLT-4 leukemia
KM12 colon = tested on: KM12 colon
SF-268 CNS = tested on: SF-268 CNS
SK-MEL-5 melanoma = tested on: SK-MEL-5 melanoma
NCI-H226 lung = tested on: NCI-H226 lung
MDA-MB-231 breast = tested on: MDA-MB-231 breast
SK-MEL-28 melanoma = tested on: SK-MEL-28 melanoma
HCT-15 colon = tested on: HCT-15 colon
NCI-H23 lung = tested on: NCI-H23 lung
IGROV1 ovarian = tested on: IGROV1 ovarian
DU-145 prostate = tested on: DU-145 prostate
UACC-257 melanoma = tested on: UACC-257 melanoma
MDA-MB-435 melanoma = tested on: MDA-MB-435 melanoma
HS 578T breast = tested on: HS 578T breast
A549 NSCLC = tested on: A549 NSCLC
SK-OV-3 ovarian = tested on: SK-OV-3 ovarian
HL-60(TB) leukemia = tested on: HL-60(TB) leukemia
U251 glioblastoma = tested on: U251 glioblastoma
OVCAR-3 ovarian = tested on: OVCAR-3 ovarian
NCI-H522 lung = tested on: NCI-H522 lung
M14 melanoma = tested on: M14 melanoma
OVCAR-5 ovarian = tested on: OVCAR-5 ovarian
SF-295 CNS = tested on: SF-295 CNS
786-0 renal = tested on: 786-0 renal
RXF 393 renal = tested on: RXF 393 renal
SN12C renal = tested on: SN12C renal

SMILES: Cc1ccc(/C=N/NC(=O)c2ccccc2Oc2ccccc2)o1
- GI50 (NCI-H460 NSCLC): 16.6 µM
- TGI (NCI-H460 NSCLC): 30.5 µM
- GI50 (TK-10 renal): 4.22 µM
- TGI (TK-10 renal): 16.7 µM
- GI50 (SNB-19 CNS): 12.1 µM
- TGI (SNB-19 CNS): 25 µM
- GI50 (SK-MEL-2 melanoma): 3.99 µM
- TGI (SK-MEL-2 melanoma): 7.04 µM
- GI50 (NCI-H322M lung): 19.1 µM
- TGI (NCI-H322M lung): 34.5 µM
- GI50 (RPMI-8226 leukemia): 18.6 µM
- TGI (RPMI-8226 leukemia): 32.7 µM
- GI50 (NCI/ADR-RES ovarian): 17.5 µM
- TGI (NCI/ADR-RES ovarian): 31.7 µM
- GI50 (HOP-62 NSCLC): 6.21 µM
- TGI (HOP-62 NSCLC): 19 µM
- GI50 (A498 renal): 17.3 µM
- TGI (A498 renal): 31.2 µM
- GI50 (HCC-2998 colon): 17.8 µM
- TGI (HCC-2998 colon): 31.7 µM
- GI50 (LOX IMVI melanoma): 19.5 µM
- TGI (LOX IMVI melanoma): 33.7 µM
- GI50 (K-562 leukemia): 3.71 µM
- TGI (K-562 leukemia): 13.5 µM
- GI50 (HT29 colon): 17.9 µM
- TGI (HT29 colon): 32 µM
- GI50 (PC-3 prostate): 17.6 µM
- TGI (PC-3 prostate): 32 µM
- GI50 (HOP-92 NSCLC): 4.72 µM
- TGI (HOP-92 NSCLC): 16.4 µM
- GI50 (OVCAR-4 ovarian): 10.7 µM
- TGI (OVCAR-4 ovarian): 24.4 µM
- GI50 (EKVX NSCLC): 18.1 µM
- TGI (EKVX NSCLC): 32.5 µM
- GI50 (HCT-116 colon): 17.7 µM
- TGI (HCT-116 colon): 31.6 µM
- GI50 (COLO 205 colon): 5.62 µM
- TGI (COLO 205 colon): 17.3 µM
- GI50 (T-47D breast): 16.2 µM
- TGI (T-47D breast): 29.8 µM
- GI50 (SF-539 CNS): 18.1 µM
- TGI (SF-539 CNS): 32 µM
- GI50 (CAKI-1 renal): 17.6 µM
- TGI (CAKI-1 renal): 31.6 µM
- GI50 (MDA-MB-468 breast): 1.88 µM
- TGI (MDA-MB-468 breast): 3.84 µM
- GI50 (SNB-75 CNS): 17.1 µM
- TGI (SNB-75 CNS): 31.1 µM
- GI50 (MALME-3M melanoma): 18.6 µM
- TGI (MALME-3M melanoma): 32.7 µM
- GI50 (ACHN renal): 3.35 µM
- TGI (ACHN renal): 12.2 µM
- GI50 (MCF7 breast): 4.85 µM
- TGI (MCF7 breast): 17.1 µM
- GI50 (SR leukemia): 1.73 µM
- TGI (SR leukemia): 3.24 µM
- GI50 (SW-620 colon): 19.2 µM
- TGI (SW-620 colon): 33.4 µM
- GI50 (BT-549 breast): 19.5 µM
- TGI (BT-549 breast): 33.7 µM
- GI50 (UO-31 renal): 3.78 µM
- TGI (UO-31 renal): 13.1 µM
- GI50 (UACC-62 melanoma): 4.66 µM
- TGI (UACC-62 melanoma): 16.5 µM
- GI50 (CCRF-CEM leukemia): 2 µM
- TGI (CCRF-CEM leukemia): 4.13 µM
- GI50 (MOLT-4 leukemia): 1.75 µM
- TGI (MOLT-4 leukemia): 3.2 µM
- GI50 (KM12 colon): 0.829 µM
- TGI (KM12 colon): 19.5 µM
- GI50 (SF-268 CNS): 18.9 µM
- TGI (SF-268 CNS): 33.3 µM
- GI50 (SK-MEL-5 melanoma): 17.1 µM
- TGI (SK-MEL-5 melanoma): 30.9 µM
- GI50 (NCI-H226 lung): 6.68 µM
- TGI (NCI-H226 lung): 19.2 µM
- GI50 (MDA-MB-231 breast): 18.3 µM
- TGI (MDA-MB-231 breast): 34 µM
- GI50 (SK-MEL-28 melanoma): 18.6 µM
- TGI (SK-MEL-28 melanoma): 32.6 µM
- GI50 (HCT-15 colon): 17.3 µM
- TGI (HCT-15 colon): 31.6 µM
- GI50 (NCI-H23 lung): 4.32 µM
- TGI (NCI-H23 lung): 16.1 µM
- GI50 (IGROV1 ovarian): 2.49 µM
- TGI (IGROV1 ovarian): 10.7 µM
- GI50 (DU-145 prostate): 6.77 µM
- TGI (DU-145 prostate): 19.9 µM
- GI50 (UACC-257 melanoma): 17.3 µM
- TGI (UACC-257 melanoma): 31.2 µM
- GI50 (MDA-MB-435 melanoma): 18.8 µM
- TGI (MDA-MB-435 melanoma): 32.9 µM
- GI50 (HS 578T breast): 16.6 µM
- TGI (HS 578T breast): 30.3 µM
- GI50 (A549 NSCLC): 17.9 µM
- TGI (A549 NSCLC): 31.9 µM
- GI50 (SK-OV-3 ovarian): 16.8 µM
- TGI (SK-OV-3 ovarian): 31.2 µM
- GI50 (HL-60(TB) leukemia): 19.4 µM
- TGI (HL-60(TB) leukemia): 33.6 µM
- GI50 (U251 glioblastoma): 18 µM
- TGI (U251 glioblastoma): 32 µM
- GI50 (OVCAR-3 ovarian): 16.3 µM
- TGI (OVCAR-3 ovarian): 30.4 µM
- GI50 (NCI-H522 lung): 16.2 µM
- TGI (NCI-H522 lung): 29.7 µM
- GI50 (M14 melanoma): 5.39 µM
- TGI (M14 melanoma): 18 µM
- GI50 (OVCAR-5 ovarian): 6.64 µM
- TGI (OVCAR-5 ovarian): 20 µM
- GI50 (SF-295 CNS): 4.52 µM
- TGI (SF-295 CNS): 16.4 µM
- GI50 ([…]-0 renal): 8.44 µM
- TGI (786-0 renal): 20.8 µM
- GI50 (RXF 393 renal): 16.9 µM
- TGI (RXF 393 renal): 30.6 µM
- GI50 (SN12C renal): 4.87 µM
- TGI (SN12C renal): 17 µM
